Two compounds from ChEMBL document CHEMBL5241071, “Covalent Small Molecule Immunomodulators Targeting the Protease Active Site” (J Med Chem, 2021) can be followed below.

One test deals with T1, Neutrophil elastase (Homo sapiens, UniProt P08246).
T1 sequence (P08246 whole entry): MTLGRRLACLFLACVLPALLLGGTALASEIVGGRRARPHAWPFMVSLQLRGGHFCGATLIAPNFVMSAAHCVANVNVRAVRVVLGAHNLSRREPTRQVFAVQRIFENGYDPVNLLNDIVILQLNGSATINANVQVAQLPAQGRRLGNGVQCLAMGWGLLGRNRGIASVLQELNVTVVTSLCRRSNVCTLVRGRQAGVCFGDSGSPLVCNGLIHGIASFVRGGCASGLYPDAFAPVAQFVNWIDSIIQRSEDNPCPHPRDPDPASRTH
The experiment in a line: Inhibition of human NE.

Test [1] concerns the target T2, Granzyme A (Homo sapiens) (UniProt P12544).
T2 sequence (whole entry): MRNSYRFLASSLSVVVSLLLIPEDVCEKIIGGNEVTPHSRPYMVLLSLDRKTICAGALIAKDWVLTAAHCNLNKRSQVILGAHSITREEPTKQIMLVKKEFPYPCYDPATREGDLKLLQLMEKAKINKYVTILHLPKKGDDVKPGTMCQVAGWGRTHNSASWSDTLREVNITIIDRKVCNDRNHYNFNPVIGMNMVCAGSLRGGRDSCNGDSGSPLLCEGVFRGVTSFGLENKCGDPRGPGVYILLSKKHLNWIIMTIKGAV
The experiment in a line: Inhibition of human recombinant GzmA assessed as Kobs/[I].

The IC50 is the midpoint of a concentration-inhibition curve. High values mean lower potency, low ones higher potency. In the case of `O=S(=O)(F)Oc1ccccc1S(=O)(=O)F`, on Neutrophil elastase, half-maximal inhibition (IC50) was put at 240 nM.

As for `N=C(N)SCCOc1oc(=O)c2cc(NC(=O)Nc3ccccc3)ccc2c1Cl`, in test [1], the kobs/[I] is 94000 M⁻¹ s⁻¹.
